Reference: patent US8404869B2, “Phenanthrenequinone-based compound and pharmaceutical composition containing the same for the treatment or prevention of disease involving metabolic syndrome” (Mazence Inc., priority 2007, dated 2013)

Legend:
AMPK = experiment: Determination of AMPK activation in differentiated C2C12 myoblast cells (SAMS peptide, [γ-32P]ATP); assay type: cell-based; details: C2C12 myoblast cells treated at 5 μg/ml; DMSO (0.5%) control = 1
Description: Myoblast cells, C2C12, were cultured in DMEM containing 10% bovine calf serum. When a cell density reached a range of about 85% to 90%, the culture medium was replaced with a medium containing 1% bovine calf serum to induce differentiation of cells. The thus-differentiated myoblast cells were treated with samples synthesized in Examples 1 through 16 at a concentration of 5 μg/ml, and compared with a control group. Enzymatic activity of AMPK was determined as follows. Firstly, C2C12 cells were lysed to obtain protein extracts and then ammonium sulfate was added to a final concentration of 30%, thereby precipitating proteins. Protein precipitates were dissolved in a buffer (62.5 mM Hepes, pH 7.2, 62.5 mM NaCl, 62.5 mM NaF, 1.25 mM Na pyrophosphate, 1.25 mM EDTA, 1 mM DTT, 0.1 mM PMSF, and 200 μM AMP). Thereafter, 200 μM SAMS peptide (HMRSAMSGLHLVKRR: the underlined serine residue is a phosphorylation site, as an AMPK phosphorylation site of acetyl-CoA carboxylase) and [γ-32P]ATP were added thereto and reactants were reacted for 10 minutes at 30° C. This was followed by spotting of the resulting reaction solution on p81 phosphocellulose paper. The p81 paper was washed with a 3% phosphoric acid solution and radioactivity thereof was measured. For each reaction condition, reactions involving no SAMS peptide were also conducted and basic values were subtracted from the thus-observed values.

[1] = test system: C57BL/6JL Lep ob/Lep ob mice; experiment: Blood biomarkers (lipid, glucose, enzyme levels) in ob/ob mice; assay type: in vivo; parameters: unit not given here; details: after mixed-feed of 0.4% for 18 days
Description: (§1) 10-week-old C57BL/6JL Lep ob/Lep ob male mice having obesity characteristics and predisposition were purchased from Daehan Biolink Co., Ltd. (Chungchongbuk-do, Korea). Animals were raised in a breeding room maintained at a temperature of 23° C., 55% humidity, illumination of 300 to 500 lux, a 12-h light/dark (L/D) cycle, and ventilation of 10 to 18 times/hr. Animals were fed ad libitum pellets of Purina Rodent Laboratory Chow 5001 (purchased from Purina Mills Inc., St. Louis, Mo., USA) as a solid feed for experimental animals and tap water as drinking water. Mice were allowed to acclimate to new environment of the breeding room for two weeks and were then administered some pyrano-3,4-phenanthrenequinone or furano-3,4-naphthoquinone derivatives synthesized according to the present invention at mixed-feed of 0.4% for 18 days. Observation was made on changes in body weight, blood glucose and dietary intake, with respect to a time course of administration. After administration was complete, confirm changes in glucose, lipid and enzyme levels in blood.
(§2) For comparison, the same experiments were carried out for the subject (negative control group) to which the active ingredient was not administered, and subject (positive control group) to which Cryptotanshinone, extracted from Danshen by a method as set forth in Example 1 of the Korean Patent Application No. 2004-0116339 by the present applicant, was administered by the above-mentioned condition.

[2] = test system: C57BL/6JL Lep ob/Lep ob mice; experiment: Weight loss effects in obese mice (ob/ob); assay type: in vivo; details: mixed-feed of 0.4% for 18 days; for change in vivo at 0.4 % in feed: Mus musculus, po, 432 h, read-out: Increase in BW; for Final BW: ob/ob male mice
Description: as §1, §2
Herein, ‘Increase in BW’ is calculated as the following; Increase in BW=(Final BW−Initial BW)/Initial BW×100

[3] = (Final BW−Initial BW)/Initial BW×100

Row | Compound | AMPK fold (AMPK) | GOT [1] | GPT [1] | HDL chol [1] | LDL chol [1] | T. chol [1] | glucose [1] | triglyceride [1] | change in vivo at 0.4 % in feed [2, 3] | Final BW [2] | GOT ([1]; listed as Ex. 2) | GPT ([1]; listed as Ex. 2) | HDL chol ([1]; listed as Ex. 2) | LDL chol ([1]; listed as Ex. 2) | T. chol ([1]; listed as Ex. 2) | glucose ([1]; listed as Ex. 2) | triglyceride ([1]; listed as Ex. 2) | Increase in BW [2, 3]
1 | CC1CC2=C(O1)c1ccc3ccccc3c1C(=O)C2=O (centres unmarked) [Example 7, 2-Methyl-1,2-dihydro-phenanthro[1,2-b]furan-10,11-dione] | 2.2 fold | 286.7 | 143.8 | 58.8 | 14.00 | 148.8 | 156 | 70.0 | -3.9% | 49.6 ± 2.6 g | – | – | – | – | – | – | – | –
2 | CC1CC2=C(O1)c1ccc3ccc(C(C)(C)C)cc3c1C(=O)C2=O (centres unmarked) [Example 11, 8-tert-Butyl-2-methyl-1,2-dihydro-phenanthro[1,2-b]furan-10,11-dione] | 2.3 fold | 347.5 | 197.5 | 47.5 | 9.95 | 134.0 | 175 | 82.0 | -1.2% | 52.2 ± 1.4 g | – | – | – | – | – | – | – | –
3 | Cc1ccc2ccc3c(c2c1)C(=O)C(=O)C1=C3OC(C)C1 (centres unmarked) [Example 14, 2,8-Dimethyl-1,2-dihydro-phenanthro[1,2-b]furan-10,11-dione] | 2.5 fold | 283.3 | 66.7 | 45.0 | 5.00 | 115.0 | 146 | 88.3 | -7% | 48.7 ± 1.9 g | – | – | – | – | – | – | – | –
4 | COc1ccc2ccc3c(c2c1)C(=O)C(=O)C1=C3OC(C)C1 (centres unmarked) [Example 15, 8-Methoxy-2-methyl-1,2-dihydro-phenanthro[1,2-b]furan-10,11-dione] | 2.2 fold | 312.5 | 206.7 | 46.0 | 8.75 | 142.0 | 155 | 79.0 | -6.7% | 48.5 ± 1.5 g | – | – | – | – | – | – | – | –
5 | Cc1cc2c(c3ccccc13)C(=O)C(=O)C1=C2OC(C)C1 (centres unmarked) [Example 9, 2,5-Dimethyl-1,2-dihydro-phenanthro[1,2-b]furan-10,11-dione] | 2.3 fold | 355.0 | 77.0 | 48.0 | 11.00 | 135.0 | 136 | 72.0 | -6% | 48.9 ± 1.7 g | – | – | – | – | – | – | – | –
6 | C[C@H]1COC2=C1C(=O)C(=O)c1c2ccc2c1CCCC2(C)C [Positive control group, Cryptotanshinone, reference compound] | – | 255.0 | 149.0 | 48.0 | 11.0 | 135.0 | – | 100.9 | -1.2% | 51.6 ± 1.7 g | – | – | – | – | – | – | – | –
7 | Cc1cc2c(c3ccccc13)C(=O)C(=O)C1=C2OC(C)C1(C)C (centres unmarked) [Example 10, 1,1,2,5-Tetramethyl-1,2-dihydro-phenanthro[1,2-b]furan-10,11-dione] | 2.4 fold | 283.3 | 66.7 | 45.0 | 5.00 | 115.0 | 121 | 88.3 | -20.3% | 41.1 ± 1.3 g | – | – | – | – | – | – | – | –
8 | CC1CC2=C(O1)c1ccc3c(c1C(=O)C2=O)CCCC3(C)C (single isomer, unassigned) [Example 2, 2,6,6-Trimethyl-1,2,6,7,8,9-hexahydro-phenanthro[1,2-b]furan-10,11-dione] | 2.4 fold | – | – | – | – | – | – | – | – | 44.4 ± 3.4 g | 378.8 | 215.0 | 38.8 | 21.67 | 125.0 | 125 | 58.8 | −15.9%
9 | CC1C2=C(OC1(C)C)c1ccc3c(c1C(=O)C2=O)CCCC3(C)C (centres unmarked) [Example 5, 1,2,2,6,6-Pentamethyl-1,2,6,7,8,9-hexahydro-phenanthro[1,2-b]furan-10,11-dione] | 2.3 fold | 377.5 | 251.0 | 45.5 | 14.05 | 126.5 | 141 | 77.0 | -7.8% | 47.9 ± 3.1 g | – | – | – | – | – | – | – | –
10 | CC1CC2=C(O1)c1ccc3ccc(Cl)cc3c1C(=O)C2=O (centres unmarked) [Example 13, 8-Chloro-2-methyl-1,2-dihydro-phenanthro[1,2-b]furan-10,11-dione] | 2.3 fold | 373.5 | 184.0 | 44.0 | 12.00 | 125.5 | 138 | 85.3 | -6.3% | 48.8 ± 2.5 g | – | – | – | – | – | – | – | –
11 | CC1CC2=C(O1)c1ccc3c(c1C(=O)C2=O)CCCC3 (centres unmarked) [Example 1, 2-Methyl-1,2,6,7,8,9-hexahydro-phenanthro[1,2-b]furan-10,11-dione] | 2.2 fold | 233.3 | 118.8 | 42.5 | 13.00 | 141.7 | 120 | 81.7 | -14.2% | 45.3 ± 1.7 g | – | – | – | – | – | – | – | –
12 | CC1OC2=C(C(=O)C(=O)c3c2ccc2ccc(C(C)(C)C)cc32)C1(C)C (centres unmarked) [Example 12, 8-tert-Butyl-1,1,2-trimethyl-1,2-dihydro-phenanthro[1,2-b]furan-10,11-dione] | 2.2 fold | 355.0 | 77.0 | 48.0 | 11.00 | 135.0 | 153 | 69.0 | -6.9% | 48.3 ± 2.3 g | – | – | – | – | – | – | – | –
13 | CC1OC2=C(C(=O)C(=O)c3c2ccc2c3CCCC2(C)C)C1(C)C (centres unmarked) [Example 4, 1,1,2,6,6-Pentamethyl-1,2,6,7,8,9-hexahydro-phenanthro[1,2-b]furan-10,11-dione] | 2.2 fold | 476.7 | 285.0 | 45.0 | 10.00 | 127.5 | 128 | 76.7 | -7.1% | 48.6 ± 3.3 g | – | – | – | – | – | – | – | –
14 | Cc1cc2c(c3ccccc13)C(=O)C(=O)C1=C2OC(C)(C)CC1 [Example 16, 3,3,6-Trimethyl-2,3-dihydro-1H-4-oxa-chrysene-11,12-dione] | 1.9 fold | 342.5 | 197.5 | 47.0 | 12.00 | 140.0 | 135 | 82.3 | -7.2% | 48.0 ± 1.9 g | – | – | – | – | – | – | – | –
15 | CC1OC2=C(C(=O)C(=O)c3c2ccc2ccccc32)C1(C)C (centres unmarked) [Example 8, 1,1,2-Trimethyl-1,2-dihydro-phenanthro[1,2-b]furan-10,11-dione] | 2.5 fold | 376.5 | 241.0 | 48.0 | 13.75 | 132.5 | 118 | 79.5 | -20.3% | 41.1 ± 1.3 g | – | – | – | – | – | – | – | –
16 | CC1(C)CCC2=C(O1)c1ccc3c(c1C(=O)C2=O)CCCC3 [Example 6, 3,3-Dimethyl-2,3,7,8,9,10-hexahydro-1H-4-oxa-chrysene-11,12-dione] | 2.2 fold | 392.5 | 250.0 | 49.0 | 13.00 | 129.5 | 145 | 69.5 | -6.3% | 49.0 ± 2.7 g | – | – | – | – | – | – | – | –
